Measured values as given in the supplement of paper PMC10307832.

Assays:
Assay in all cases: relative viability (nuclei count vs DMSO), 5 days (fraction); higher = more cells survive
[1] = compound: CN(c1ncccc1CNc1nc(Nc2ccc3c(c2)CC(=O)N3)ncc1C(F)(F)F)S(C)(=O)=O + O=C(CCCCCCC(=O)Nc1ccccc1)NO [Vorinostat] (partner 1 µM)
Summary of the method: (§1)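 Relative viability equals treated-well nuclei counts divided by vehicle-well nuclei counts. Counts came from 4× images of lung cancer cell lines grown in 1536-well plates for 5 days after pin-tool dosing on the day after seeding. Dosing used one drug alone or a fixed anchor-drug dose plus five library-drug doses (not always all listed) in √10 steps, and values are medians of duplicate plates.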

[2] = compound: CN(c1ncccc1CNc1nc(Nc2ccc3c(c2)CC(=O)N3)ncc1C(F)(F)F)S(C)(=O)=O + Nc1nc2[nH]cc(CCc3ccc(C(=O)N[C@@H](CCC(=O)O)C(=O)O)cc3)c2c(=O)[nH]1 [Pemetrexed] (partner 0.2 µM)
Summary of the method: as §1

[3] = compound: CN(c1ncccc1CNc1nc(Nc2ccc3c(c2)CC(=O)N3)ncc1C(F)(F)F)S(C)(=O)=O + Cc1nc(Nc2ncc(C(=O)Nc3c(C)cccc3Cl)s2)cc(N2CCN(CCO)CC2)n1 [Dasatinib] (partner 0.075 µM)
Summary of the method: as §1

[4] = compound: CN(c1ncccc1CNc1nc(Nc2ccc3c(c2)CC(=O)N3)ncc1C(F)(F)F)S(C)(=O)=O + CC(=O)c1c(C)c2cnc(Nc3ccc(N4CCNCC4)cn3)nc2n(C2CCCC2)c1=O [Palbociclib] (partner 0.5 µM)
Summary of the method: as §1

Cell Line | relative viability ([1]; first compound 0.01 µM) | relative viability ([1]; first compound 0.03162 µM) | relative viability ([1]; first compound 0.1 µM) | relative viability ([1]; first compound 0.3162 µM) | relative viability ([1]; first compound 1 µM) | relative viability ([2]; first compound 0.01 µM) | relative viability ([2]; first compound 0.03162 µM) | relative viability ([2]; first compound 0.1 µM) | relative viability ([2]; first compound 0.3162 µM) | relative viability ([2]; first compound 1 µM) | relative viability ([3]; first compound 0.01 µM) | relative viability ([3]; first compound 0.03162 µM) | relative viability ([3]; first compound 0.1 µM) | relative viability ([3]; first compound 0.3162 µM) | relative viability ([3]; first compound 1 µM) | relative viability ([4]; first compound 0.01 µM) | relative viability ([4]; first compound 0.03162 µM) | relative viability ([4]; first compound 0.1 µM) | relative viability ([4]; first compound 0.3162 µM) | relative viability ([4]; first compound 1 µM)
NCI-H1793 | 0.866 | 0.724 | 0.785 | 0.699 | 0.713 | 1.05 | 0.912 | 0.934 | 0.919 | 0.931 | 0.375 | 0.336 | 0.409 | 0.311 | 0.353 | 0.314 | 0.321 | 0.328 | 0.341 | 0.324
NCI-H1915 | 0.535 | 0.534 | 0.593 | 0.536 | 0.519 | 0.528 | 0.569 | 0.455 | 0.517 | 0.538 | 0.296 | 0.269 | 0.292 | 0.295 | 0.309 | 0.498 | 0.532 | 0.58 | 0.525 | 0.509
NCI-H1944 | 0.587 | 0.508 | 0.586 | 0.585 | 0.534 | 0.642 | 0.612 | 0.646 | 0.592 | 0.613 | 0.232 | 0.231 | 0.202 | 0.252 | 0.276 | 0.346 | 0.342 | 0.328 | 0.322 | 0.312
NCI-H1975 | 0.726 | 0.688 | 0.666 | 0.71 | 0.613 | 0.296 | 0.283 | 0.275 | 0.296 | 0.288 | 0.359 | 0.272 | 0.28 | 0.27 | 0.262 | 0.602 | 0.639 | 0.712 | 0.532 | 0.502
NCI-H1993 | 0.831 | 0.773 | 0.805 | 0.709 | 0.577 | 0.584 | 0.593 | 0.538 | 0.641 | 0.572 | 0.601 | 0.48 | 0.506 | 0.78 | 0.593 | 0.479 | 0.64 | 0.669 | 0.652 | 0.597
NCI-H2009 | 0.724 | 0.838 | 0.693 | 0.75 | 0.685 | 1.03 | 1 | 0.923 | 1.01 | 0.948 | 0.23 | 0.217 | 0.244 | 0.229 | 0.238 | 0.207 | 0.179 | 0.251 | 0.202 | 0.191
NCI-H2023 | 0.636 | 0.826 | 0.666 | 0.709 | 0.487 | 0.181 | 0.241 | 0.221 | 0.228 | 0.214 | 0.476 | 0.588 | 0.428 | 0.432 | 0.448 | 0.382 | 0.405 | 0.376 | 0.339 | 0.229
NCI-H2085 | 0.816 | 0.837 | 0.761 | 0.734 | 0.691 | 0.917 | 0.774 | 0.885 | 0.953 | 0.947 | 0.215 | 0.232 | 0.178 | 0.183 | 0.152 | 0.444 | 0.467 | 0.443 | 0.462 | 0.401
